Experiments:
Assay in all cases: relative viability (nuclei count vs DMSO), 5 days (fraction); higher = more cells survive
[1] = test system: ABC-1
Method in brief: (§1)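 Relative viability is defined as nuclei in treated wells over nuclei in vehicle wells. Duplicate plates were run and medians reported. Lung cancer cell lines in 1536-well plates were dosed by pin tool one day after seeding, with one drug or with a fixed anchor-drug dose plus five library-drug doses (not always all listed) in √10 steps, and nuclei were counted after 5 days.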

[2] = test system: COR-L23
Method in brief: as §1

[3] = test system: H3255
Method in brief: as §1

[4] = test system: HCC-15
Method in brief: as §1

[5] = test system: HCC-366
Method in brief: as §1

[6] = test system: HCC-827
Method in brief: as §1

[7] = test system: LC-2-ad
Method in brief: as §1

[8] = test system: LCLC-103H
Method in brief: as §1

[9] = test system: LXF-289
Method in brief: as §1

[10] = test system: NCI-H1437
Method in brief: as §1

[11] = test system: NCI-H1666
Method in brief: as §1

[12] = test system: NCI-H1975
Method in brief: as §1

[13] = test system: NCI-H2009
Method in brief: as §1

[14] = test system: NCI-H2085
Method in brief: as §1

[15] = test system: NCI-H2087
Method in brief: as §1

[16] = test system: NCI-H2228
Method in brief: as §1

[17] = test system: NCI-H23
Method in brief: as §1

[18] = test system: NCI-H661
Method in brief: as §1

[19] = test system: PC-14
Method in brief: as §1

[20] = test system: PC-3 [JPC-3]
Method in brief: as §1

[21] = test system: SK-MES-1
Method in brief: as §1

[22] = test system: UMC-11
Method in brief: as §1

CCNC(=O)c1noc(-c2cc(C(C)C)c(O)cc2O)c1-c1ccc(CN2CCOCC2)cc1 [Luminespib] + Cc1nc(NC(=O)N2CCC[C@H]2C(N)=O)sc1-c1ccnc(C(C)(C)C(F)(F)F)c1 [Alpelisib] (partner 2 µM)
relative viability ([1]; first compound 0.002 µM): 0.976
relative viability ([1]; first compound 0.006325 µM): 0.95
relative viability ([1]; first compound 0.02 µM): 1.15
relative viability ([1]; first compound 0.06325 µM): 0.392
relative viability ([1]; first compound 0.2 µM): 0.3
relative viability ([2]; first compound 0.002 µM): 0.825
relative viability ([2]; first compound 0.006325 µM): 0.685
relative viability ([2]; first compound 0.02 µM): 0.714
relative viability ([2]; first compound 0.06325 µM): 0.0624
relative viability ([2]; first compound 0.2 µM): 0.0515
relative viability ([3]; first compound 0.002 µM): 0.775
relative viability ([3]; first compound 0.006325 µM): 0.636
relative viability ([3]; first compound 0.02 µM): 0.508
relative viability ([3]; first compound 0.06325 µM): 0.586
relative viability ([3]; first compound 0.2 µM): 0.195
relative viability ([4]; first compound 0.002 µM): 0.964
relative viability ([4]; first compound 0.006325 µM): 0.852
relative viability ([4]; first compound 0.02 µM): 0.773
relative viability ([4]; first compound 0.06325 µM): 0.54
relative viability ([4]; first compound 0.2 µM): 0.492
relative viability ([5]; first compound 0.002 µM): 0.442
relative viability ([5]; first compound 0.006325 µM): 0.496
relative viability ([5]; first compound 0.02 µM): 0.312
relative viability ([5]; first compound 0.06325 µM): 0.0181
relative viability ([5]; first compound 0.2 µM): 0.0182
relative viability ([6]; first compound 0.002 µM): 1
relative viability ([6]; first compound 0.006325 µM): 0.981
relative viability ([6]; first compound 0.02 µM): 0.849
relative viability ([6]; first compound 0.06325 µM): 0.976
relative viability ([6]; first compound 0.2 µM): 0.931
relative viability ([7]; first compound 0.002 µM): 0.881
relative viability ([7]; first compound 0.006325 µM): 0.821
relative viability ([7]; first compound 0.02 µM): 0.858
relative viability ([7]; first compound 0.06325 µM): 0.123
relative viability ([7]; first compound 0.2 µM): 0.092
relative viability ([8]; first compound 0.002 µM): 0.969
relative viability ([8]; first compound 0.006325 µM): 1.01
relative viability ([8]; first compound 0.02 µM): 0.85
relative viability ([8]; first compound 0.06325 µM): 0.928
relative viability ([8]; first compound 0.2 µM): 1
relative viability ([9]; first compound 0.002 µM): 1.03
relative viability ([9]; first compound 0.006325 µM): 0.97
relative viability ([9]; first compound 0.02 µM): 1.09
relative viability ([9]; first compound 0.06325 µM): 0.52
relative viability ([9]; first compound 0.2 µM): 0.161
relative viability ([10]; first compound 0.002 µM): 0.878
relative viability ([10]; first compound 0.006325 µM): 0.919
relative viability ([10]; first compound 0.02 µM): 1.16
relative viability ([10]; first compound 0.06325 µM): 0.294
relative viability ([10]; first compound 0.2 µM): 0.107
relative viability ([11]; first compound 0.002 µM): 1
relative viability ([11]; first compound 0.006325 µM): 1.01
relative viability ([11]; first compound 0.02 µM): 0.985
relative viability ([11]; first compound 0.06325 µM): 1.01
relative viability ([11]; first compound 0.2 µM): 0.795
relative viability ([12]; first compound 0.002 µM): 0.667
relative viability ([12]; first compound 0.006325 µM): 0.512
relative viability ([12]; first compound 0.02 µM): 0.233
relative viability ([12]; first compound 0.06325 µM): 0.137
relative viability ([12]; first compound 0.2 µM): 0.126
relative viability ([13]; first compound 0.002 µM): 1.29
relative viability ([13]; first compound 0.006325 µM): 1.02
relative viability ([13]; first compound 0.02 µM): 1.28
relative viability ([13]; first compound 0.06325 µM): 0.698
relative viability ([13]; first compound 0.2 µM): 0.0841
relative viability ([14]; first compound 0.002 µM): 0.967
relative viability ([14]; first compound 0.006325 µM): 0.989
relative viability ([14]; first compound 0.02 µM): 0.937
relative viability ([14]; first compound 0.06325 µM): 0.542
relative viability ([14]; first compound 0.2 µM): 0.397
relative viability ([15]; first compound 0.002 µM): 1.2
relative viability ([15]; first compound 0.006325 µM): 0.907
relative viability ([15]; first compound 0.02 µM): 1.3
relative viability ([15]; first compound 0.06325 µM): 0.193
relative viability ([15]; first compound 0.2 µM): 0.184
relative viability ([16]; first compound 0.002 µM): 0.808
relative viability ([16]; first compound 0.006325 µM): 0.595
relative viability ([16]; first compound 0.02 µM): 0.156
relative viability ([16]; first compound 0.06325 µM): 0.142
relative viability ([16]; first compound 0.2 µM): 0.136
relative viability ([17]; first compound 0.002 µM): 0.814
relative viability ([17]; first compound 0.006325 µM): 0.56
relative viability ([17]; first compound 0.02 µM): 0.504
relative viability ([17]; first compound 0.06325 µM): 0.141
relative viability ([17]; first compound 0.2 µM): 0.116
relative viability ([18]; first compound 0.002 µM): 0.628
relative viability ([18]; first compound 0.006325 µM): 0.608
relative viability ([18]; first compound 0.02 µM): 0.48
relative viability ([18]; first compound 0.06325 µM): 0.322
relative viability ([18]; first compound 0.2 µM): 0.184
relative viability ([19]; first compound 0.002 µM): 0.942
relative viability ([19]; first compound 0.006325 µM): 0.882
relative viability ([19]; first compound 0.02 µM): 0.893
relative viability ([19]; first compound 0.06325 µM): 0.091
relative viability ([19]; first compound 0.2 µM): 0.0816
relative viability ([20]; first compound 0.002 µM): 1.09
relative viability ([20]; first compound 0.006325 µM): 0.908
relative viability ([20]; first compound 0.02 µM): 0.871
relative viability ([20]; first compound 0.06325 µM): 1.08
relative viability ([20]; first compound 0.2 µM): 0.957
relative viability ([21]; first compound 0.002 µM): 0.82
relative viability ([21]; first compound 0.006325 µM): 0.858
relative viability ([21]; first compound 0.02 µM): 0.593
relative viability ([21]; first compound 0.06325 µM): 0.306
relative viability ([21]; first compound 0.2 µM): 0.133
relative viability ([22]; first compound 0.002 µM): 0.943
relative viability ([22]; first compound 0.006325 µM): 0.907
relative viability ([22]; first compound 0.02 µM): 0.653
relative viability ([22]; first compound 0.06325 µM): 0.342
relative viability ([22]; first compound 0.2 µM): 0.129
